Laboratory results reported in US6444617B1, “Fused-heterocycle dicarboxylic acid diamide derivatives or salts thereof, herbicide and usage thereof” (Nihon Nohyaku Co., Ltd., priority 1998, dated 2002).

Legend:
Format in all cases: in vivo
wheat (Wh) = experiment: Test Example 3: phytotoxicity to upland crop plants, treatment before emergence; details: dosage 5 kg/ha
Procedure, shortened: (§1)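 Pre-emergence spray, test compound at prescribed conc. in liquid formulation; crop injury (soybean, wheat) read at day 14, scored by criterion.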

soybean plant (So) = experiment: as above; details: dosage 5 kg/ha
Procedure, shortened: as §1

[1] = test system: barnyard grass (Echinochloa crus-galli Beauv.), Ec; experiment: Test Example 4: herbicidal effect on upland weeds after emergence; details: dosage 5 kg/ha; sprayed after emergence; judged 14 days after treatment
Procedure, shortened: (§2)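 Post-emergence foliar spray, compound at prescribed concentration, applied at defined leaf stages; weeds plus soybean/wheat grown in soil vats. Read-out: weed-killing rate and crop injury, 14 d post-treatment.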

[2] = test system: velvetleaf (Abutilon theophtasti L.), At; experiment: as above; details: dosage 5 kg/ha; sprayed after emergence; judged 14 days after treatment
Procedure, shortened: as §2

[3] = test system: cocklebur (Xanthium strumarium L.), Xs; experiment: as above; details: dosage 5 kg/ha; sprayed after emergence; judged 14 days after treatment
Procedure, shortened: as §2

[4] = test system: forxtail grass (Alopecurus aequalis var. amurensis Ohwi), Am; experiment: as above; details: dosage 5 kg/ha; sprayed after emergence; judged 14 days after treatment
Procedure, shortened: as §2

[5] = test system: cleavers (Galium aparine L.), Ga; experiment: as above; details: dosage 5 kg/ha; sprayed after emergence; judged 14 days after treatment
Procedure, shortened: as §2

[6] = test system: bird's eye speedwell (Veronica persica Poir.), Vp; experiment: as above; details: dosage 5 kg/ha; sprayed after emergence; judged 14 days after treatment
Procedure, shortened: as §2

[7] = test system: bulrush (Scirpus juncoides Roxb.); experiment: Test Example 1: herbicidal effect on paddy field weeds before emergence; details: Dosage 5 kg/ha
Procedure, shortened: (§3)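 Seeds of both weeds, still ungerminated, in soil pots held under paddy conditions received a set dose of test solution as soil treatment. After twenty-one days, control relative to untreated pots was calculated and rated on a scoring scale.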

[8] = test system: barnyard grass (Echinochloa crus-galli Beauv.); experiment: as above; details: Dosage 5 kg/ha
Procedure, shortened: as §3

[9] = test system: bulrush (Scirpus juncoides Roxb.); experiment: Test Example 2: herbicidal effect on paddy field weeds after emergence; details: Dosage 5 kg/ha; one-leaved stage; 21 days after treatment
Procedure, shortened: (§4)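 Weeds were sown in 1/10000 are pots of soil flooded to paddy conditions and grown to the one-leaf stage, then the soil was treated with a solution of compound at a predetermined dosage.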

[10] = test system: monochoria (Monochoria vaginalis Presl); experiment: as above; details: Dosage 5 kg/ha; one-leaved stage; 21 days after treatment
Procedure, shortened: as §4

[11] = test system: barnyard grass (Echinochloa crus-galli Beauv.); experiment: as above; details: Dosage 5 kg/ha; one-leaved stage; 21 days after treatment
Procedure, shortened: as §4

wheat = experiment: Test Example 4: phytotoxicity to upland crop plants, treatment after emergence; details: dosage 5 kg/ha, sprayed after emergence, judged 14 days after treatment
Procedure, shortened: as §2

soybean plant = experiment: as above; details: dosage 5 kg/ha, sprayed after emergence, judged 14 days after treatment
Procedure, shortened: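 Post-emergence foliar spray at a prescribed concentration, applied once the sown weeds and soybean reached defined leaf stages in soil vats; herbicidal effect and soybean injury scored after 14 days.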

[12] = test system: barnyard grass (Echinochloa crus-galli Beauv.), Ec; experiment: Test Example 3: herbicidal effect on upland weeds before emergence; details: dosage 5 kg/ha
Procedure, shortened: (§5)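 Read-out is the weed-killing rate, scored fourteen days after a single spray application made before the weeds emerged. The spray was a liquid agent carrying the active compound at a prescribed dose.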

[13] = test system: velvetleaf (Abutilon theophtasti L.), At; experiment: as above; details: dosage 5 kg/ha
Procedure, shortened: as §5

[14] = test system: cocklebur (Xanthium strumarium L.), Xs; experiment: as above; details: dosage 5 kg/ha
Procedure, shortened: as §5

[15] = test system: forxtail grass (Alopecurus aequalis var. amurensis Ohwi), Am; experiment: as above; details: foxtail grass, dosage 5 kg/ha
Procedure, shortened: as §5

[16] = test system: cleavers (Galium aparine L.), Ga; experiment: as above; details: dosage 5 kg/ha
Procedure, shortened: as §5

[17] = test system: bird's eye speedwell (Veronica persica Poir.), Vp; experiment: as above; details: dosage 5 kg/ha
Procedure, shortened: as §5

| SMILES | Phytotoxicity Wh (wheat (Wh)) | Phytotoxicity So (soybean plant (So)) | Herbicidal effect Ec [1] | Herbicidal effect At [2] | Herbicidal effect Xs [3] | Herbicidal effect Am [4] | Herbicidal effect Ga [5] | Herbicidal effect Vp [6] | Pre-emergence treatment Bulrush (herbicidal effect) [7] | Pre-emergence treatment Barnyard grass (herbicidal effect) [8] | Post-emergence treatment Bulrush (herbicidal effect) [9] | Post-emergence treatment Monochoria (herbicidal effect) [10] | Post-emergence treatment Barnyard grass (herbicidal effect) [11] | Phytotoxicity Wh (wheat) | Phytotoxicity So (soybean plant) | Herbicidal effect Ec [12] | Herbicidal effect At [13] | Herbicidal effect Xs [14] | Herbicidal effect Am [15] | Herbicidal effect Ga [16] | also measured |
| --- | --- | --- | --- | --- | --- | --- | --- | --- | --- | --- | --- | --- | --- | --- | --- | --- | --- | --- | --- | --- | --- |
| CCCNC(=O)c1nc2ccsc2cc1C(=O)Nc1c(CC)ccc(Cl)c1CC [compound 871] | 5 (Crop-killing rate is 100%.) | 4 (Crop-killing rate is 90-99%.) | 5 (Weed-killing rate is 100%.) | 5 (Weed-killing rate is 100%.) | 5 (Weed-killing rate is 100%.) | 5 (Weed-killing rate is 100%.) | 5 (Weed-killing rate is 100%.) | 5 (Weed-killing rate is 100%.) | 5 (Weed-killing rate is 100%.) | 5 (Weed-killing rate is 100%.) | 5 (Weed-killing rate is 100%.) | 5 (Weed-killing rate is 100%.) | 5 (Weed-killing rate is 100%.) | 5 (Crop-killing rate is 100%.) | 4 (Crop-killing rate is 90-99%.) | 5 (Weed-killing rate is 100%.) | 5 (Weed-killing rate is 100%.) | 5 (Weed-killing rate is 100%.) | 5 (Weed-killing rate is 100%.) | 5 (Weed-killing rate is 100%.) | Herbicidal effect Vp [17]: 5 (Weed-killing rate is 100%.) |
| Cc1c(Cl)cccc1NC(=O)c1cc2sccc2nc1C(=O)NC1CCCC1 [compound 892] | 4 (Crop-killing rate is 90-99%.) | 3 (Crop-killing rate is 70-89%.) | 5 (Weed-killing rate is 100%.) | 5 (Weed-killing rate is 100%.) | 4 (Weed-killing rate is 90-99%.) | 5 (Weed-killing rate is 100%.) | 4 (Weed-killing rate is 90-99%.) | 5 (Weed-killing rate is 100%.) | 5 (Weed-killing rate is 100%.) | 5 (Weed-killing rate is 100%.) | 5 (Weed-killing rate is 100%.) | 5 (Weed-killing rate is 100%.) | 5 (Weed-killing rate is 100%.) | 4 (Crop-killing rate is 90-99%.) | 3 (Crop-killing rate is 70-89%.) | 5 (Weed-killing rate is 100%.) | 5 (Weed-killing rate is 100%.) | 4 (Weed-killing rate is 90-99%.) | 5 (Weed-killing rate is 100%.) | 5 (Weed-killing rate is 100%.) | Herbicidal effect Vp [17]: 5 (Weed-killing rate is 100%.) |
| CCNC(=O)c1nc2ccn(OC)c2cc1C(=O)Nc1c(CC)ccc(Cl)c1CC [compound 894] | 5 (Crop-killing rate is 100%.) | 4 (Crop-killing rate is 90-99%.) | 5 (Weed-killing rate is 100%.) | 5 (Weed-killing rate is 100%.) | 4 (Weed-killing rate is 90-99%.) | 5 (Weed-killing rate is 100%.) | 5 (Weed-killing rate is 100%.) | 5 (Weed-killing rate is 100%.) | 5 (Weed-killing rate is 100%.) | 5 (Weed-killing rate is 100%.) | 5 (Weed-killing rate is 100%.) | 5 (Weed-killing rate is 100%.) | 5 (Weed-killing rate is 100%.) | 5 (Crop-killing rate is 100%.) | 4 (Crop-killing rate is 90-99%.) | 5 (Weed-killing rate is 100%.) | 5 (Weed-killing rate is 100%.) | 5 (Weed-killing rate is 100%.) | 5 (Weed-killing rate is 100%.) | 5 (Weed-killing rate is 100%.) | Herbicidal effect Vp [17]: 5 (Weed-killing rate is 100%.) |
| CCCNC(=O)c1nc2ccn(OC)c2cc1C(=O)Nc1c(CC)ccc(Cl)c1CC [compound 895] | 5 (Crop-killing rate is 100%.) | 4 (Crop-killing rate is 90-99%.) | 5 (Weed-killing rate is 100%.) | 5 (Weed-killing rate is 100%.) | 5 (Weed-killing rate is 100%.) | 5 (Weed-killing rate is 100%.) | 5 (Weed-killing rate is 100%.) | 5 (Weed-killing rate is 100%.) | 5 (Weed-killing rate is 100%.) | 5 (Weed-killing rate is 100%.) | 5 (Weed-killing rate is 100%.) | 5 (Weed-killing rate is 100%.) | 5 (Weed-killing rate is 100%.) | 5 (Crop-killing rate is 100%.) | 4 (Crop-killing rate is 90-99%.) | 5 (Weed-killing rate is 100%.) | 5 (Weed-killing rate is 100%.) | 5 (Weed-killing rate is 100%.) | 5 (Weed-killing rate is 100%.) | 5 (Weed-killing rate is 100%.) | Herbicidal effect Vp [17]: 5 (Weed-killing rate is 100%.) |
| CCCNC(=O)c1nc2ccn(C)c2cc1C(=O)Nc1c(CC)ccc(Cl)c1CC [compound 907] | 5 (Crop-killing rate is 100%.) | 4 (Crop-killing rate is 90-99%.) | 5 (Weed-killing rate is 100%.) | 5 (Weed-killing rate is 100%.) | 5 (Weed-killing rate is 100%.) | 5 (Weed-killing rate is 100%.) | 5 (Weed-killing rate is 100%.) | 5 (Weed-killing rate is 100%.) | 5 (Weed-killing rate is 100%.) | 5 (Weed-killing rate is 100%.) | 5 (Weed-killing rate is 100%.) | 5 (Weed-killing rate is 100%.) | 5 (Weed-killing rate is 100%.) | 5 (Crop-killing rate is 100%.) | 4 (Crop-killing rate is 90-99%.) | 5 (Weed-killing rate is 100%.) | 5 (Weed-killing rate is 100%.) | 5 (Weed-killing rate is 100%.) | 5 (Weed-killing rate is 100%.) | 5 (Weed-killing rate is 100%.) | Herbicidal effect Vp [17]: 5 (Weed-killing rate is 100%.) |
